Data from patent publication US9670204B2, “Compounds and pharmaceutical compositions thereof for the treatment of inflammatory disorders” (Galapagos NV, priority 2013, dated 2017).
pIC50: −log10 of the molar value.

Columns and labels:
hENPP2 [1] = target: T1, hENPP2 (UniProtKB/SwissProt Q13822) (Homo sapiens (Human), UniProt Q13822); test: hENPP2 biochemical assay, LPC as substrate; settings: LPC (palmitoyl 16:0) as substrate
Method in brief: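 Human ENPP2 in 50 mM Tris-HCl pH 8.5, 500 mM NaCl, 5 mM KCl, 10 mM CaCl2, 0.1% fatty-acid-free BSA, reacted 30 min at 37 °C with LPC 16:0 (150 µM solution added 1:1). Released choline measured via choline oxidase/peroxidase/TOOS/4-aminoantipyrine quinoneimine dye at 555 nm; IC50 reported.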

hENPP2 [2] = target: T1, hENPP2; test: fluorescent hENPP2 biochemical assay, FS-3 as substrate; settings: read-out: FS3-IC50
Description: Compound IC50 values are determined in a fluorescent hENPP2 (UniProtKB/SwissProt Sequence ref Q13822) biochemical assay using the fluorogenic autotaxin substrate FS-3 as substrate. FS-3 is a doubly labeled analog of LPC wherein the fluorophore is quenched through intramolecular energy transfer. Without hENPP2, the emission of the probe is quenched. If the substrate is hydrolyzed by hENPP2, the emission of the probe is not quenched anymore resulting in a fluorescence increase.
The enzyme is diluted in 50 mM Tris-HCl pH 8.0, 250 mM NaCl, 5 mM KCl, 1 mM MgCl2, 1 mM CaCl2, 0.1% fatty acid free BSA in a total volume of 20 μL. Enzyme mixture is added to compounds and the resulting mixture is incubated for 30 min at room temperature under shaking. The reaction is started by the addition of 20 μL of 0.75 μM FS-3 diluted in the same buffer as described above and the mixture is incubated at 30° C. for 30 min. Fluorescence is read on the Envision (Excitation 485 nm, emission 520 nm).

| pIC50 (hENPP2 [1]) | pIC50 (hENPP2 [2]) | LPC-IC50 (hENPP2 [1]) | Compound |
| --- | --- | --- | --- |
| < 6.00 | 7.00 to 11.00 | – | CCc1nc2ccc(C3=CCN(S(=O)(=O)C(F)(F)F)CC3)cn2c1N(C)c1nc(-c2ccc(Cl)cc2)cs1 [Compound 210, 4-(4-chlorophenyl)-N-(2-ethyl-6-(1-(trifluoromethylsulfonyl)-1,2,3,6-tetrahydropyridin-4-yl)imidazo[1,2-a]pyridin-3-yl)-N-methylthiazol-2-amine] |
| < 6.00 | 7.00 to 11.00 | – | CCc1nc2ccc(C3=CCOCC3)cn2c1N(C)c1nc(-c2ccc(F)cc2)cs1 [Compound 220, N-(6-(3,6-dihydro-2H-pyran-4-yl)-2-ethylimidazo[1,2-a]pyridin-3-yl)-4-(4-fluorophenyl)-N-methylthiazol-2-amine] |
| < 6.00 | 7.00 to 11.00 | – | CCc1nc2ccc(N3CCN(C(=O)C4CC4)CC3)cn2c1N(C)c1nc(-c2ccc(F)cc2)cs1 [Compound 227, Cyclopropyl-[4-(2-ethyl-3-{[4-(4-fluoro-phenyl)-thiazol-2-yl]-methyl-amino}-imidazo[1,2-a]pyridin-6-yl)-piperazin-1-yl]-methanone] |
| < 6.00 | 6.30 to 7.00 | – | CCc1nc2ccc(C3=CCN(S(C)(=O)=O)CC3)cn2c1N(C)c1nc(-c2ccc(F)cc2)ns1 [Compound 199, N-(2-ethyl-6-(1-(methylsulfonyl)-1,2,3,6-tetrahydropyridin-4-yl)imidazo[1,2-a]pyridin-3-yl)-3-(4-fluorophenyl)-N-methyl-1,2,4-thiadiazol-5-amine] |
| 7.00 to 11.00 | 7.00 to 11.00 | – | CCc1nc2ccc(N3CCN(CC(=O)N(C)C)CC3)cn2c1N(C)c1nc(-c2ccc(F)cc2C#N)cs1 [Compound 168, 2-(4-(3-((4-(2-cyano-4-fluorophenyl)thiazol-2-yl)(methyl)amino)-2-ethylimidazo[1,2-a]pyridin-6-yl)piperazin-1-yl)-N,N-dimethylacetamide] |
| 6.30 to 7.00 | 7.00 to 11.00 | – | CCc1nc2ccc(C3CCN(CC(=O)N4CC[C@H](C#N)C4)CC3)cn2c1N(C)c1nc(-c2ccc(F)cc2)cs1 [Compound 116, (S)-1-(2-(4-(2-ethyl-3-((4-(4-fluorophenyl)thiazol-2-yl)(methyl)amino)imidazol[1,2-a]pyridin-6-yl)piperidin-1-yl)acetoyl)pyrrolidine-3-carbonitrile] |
| – | 7.00 to 11.00 | not active | CCc1nc2ccc(C3=CCN(S(=O)(=O)CCCCl)CC3)cn2c1N(C)c1nc(-c2ccc(F)cc2)cs1 [Compound 233, N-(6-(1-(3-chloropropylsulfonyl)-1,2,3,6-tetrahydropyridin-4-yl)-2-ethylimidazo[1,2-a]pyridin-3-yl)-4-(4-fluorophenyl)-N-methylthiazol-2-amine] |
| < 6.00 | 7.00 to 11.00 | – | CN(c1nc(-c2ccc(Cl)cc2)cs1)c1c(CC(F)(F)F)nc2ccc(C3=CCN(S(C)(=O)=O)CC3)cn12 [Compound 185, 4-(4-chlorophenyl)-N-methyl-N-(6-(1-(methylsulfonyl)-1,2,3,6-tetrahydropyridin-4-yl)-2-(2,2,2-tetrahydropyridin-4-yl)-2-(2,2,2-trifluoroethyl)imidazo [1,2-a]pyridin-3-yl) thiazol-2-amine] |

The next lines start with the compound.

| Compound | pIC50 (hENPP2 [1]) | pIC50 (hENPP2 [2]) | LPC-IC50 (hENPP2 [1]) |
| --- | --- | --- | --- |
| CCc1nc2ccc(N3CCN(C(=O)CCCO)CC3)cn2c1N(C)c1nc(-c2ccc(F)cc2)cs1 [Compound 52, 1-(4-(2-ethyl-3-((4-(4-fluorophenyl)thiazol-2-yl)(methyl)amino)imidazo[1,2-a]pyridin-6-yl)piperazin-1-yl)-4-hydroxybutan-1-one] | < 6.00 | 7.00 to 11.00 | – |
| CCc1nc2ccc(N3CCN(S(=O)(=O)CC(=O)OC)CC3)cn2c1N(C)c1nc(-c2ccc(F)cc2)cs1 [Compound 59, methyl 2-(4-(2-ethyl-3-((4-(4-fluorophenyl)thiazol-2-yl)(methyl)amino)imidazo[1,2-a]pyridin-6-yl)piperazin-1-ylsulfonyl)acetate] | < 6.00 | 7.00 to 11.00 | – |
| CCc1nc2ccc(N3CCN(C(=O)OC(C)(C)C)CC3=O)cn2c1N(C)c1nc(-c2ccc(Cl)cc2)cs1 [Compound 63, tert-butyl 4-(3-((4-(4-chlorophenyl)thiazol-2-yl)(methyl)amino)-2-ethylimidazo[1,2-a]pyridin-6-yl)-3-oxopiperazine-1-carboxylate] | < 6.00 | 7.00 to 11.00 | – |
| CCc1nc2ccc(C3CCN(S(C)(=O)=O)CC3)cn2c1N(C)c1nc(-c2ccc(F)cc2F)cs1 [Compound 100, 4-(2,4-difluorophenyl)-N-(2-ethyl-6-(1-(methylsulfonyl)piperidin-4-yl)imidazo [1,2-a]pyridin-3-yl)-N-methylthiazol-2-amine] | < 6.00 | 7.00 to 11.00 | – |
| CCc1nc2ccc(C3CCN(S(=O)(=O)CCCN4CCCC4)CC3)cn2c1N(C)c1nc(-c2ccc(F)cc2)cs1 [Compound 89, {2-Ethyl-6-[1-(3-pyrrolidin-1-yl-propane-1-sulfonyl)-piperidin-4-yl]-imidazo[1,2-a]pyridin-3-yl}-[4-(4-fluoro-phenyl)-thiazol-2-yl]-methyl-amine] | 6.30 to 7.00 | 7.00 to 11.00 | – |
| CCc1nc2ccc(N3CCN(Cc4nnnn4C4CC4)CC3)cn2c1N(C)c1nc(-c2ccc(F)cc2)cs1 [Compound 39, N-(6-(4-((1-cyclopropyl-1H-tetrazol-5-yl)methyl)piperazin-1-yl)-2-ethylimidazo[1,2-a]pyridin-3-yl)-4-(4-fluorophenyl)-N-methylthiazol-2-amine] | < 6.00 | 7.00 to 11.00 | – |
| CCc1nc2ccc(C3CCN(S(C)(=O)=O)CC3)cn2c1N(C)c1nc(-c2ccc(C(C)(C)C)cc2)cs1 [Compound 81, 4-(4-tert-butylphenyl)-N-(2-ethyl-6-(1-(methylsulfonyl)piperidin-4-yl)imidazo [1,2-a]pyridin-3-yl)-N-methylthiazol-2-amine] | < 6.00 | 7.00 to 11.00 | – |
| CCc1nc2ccc(C3CCN(S(C)(=O)=O)CC3)cn2c1N(C)c1nc(-c2ccc(F)cc2)c(C(C)=O)s1 [Compound 105, 1-(2-((2-ethyl-6-(1-(methylsulfonyl)piperidin-4-yl)imidazo[1,2-a]pyridin-3-yl)(methyl)amino)-4-(4-fluorophenyl)thiazol-5-yl)ethanone] | 6.30 to 7.00 | 7.00 to 11.00 | – |
| CCc1nc2ccc(C3CCN(S(=O)(=O)CCCCl)CC3)cn2c1N(C)c1nc(-c2ccc(F)cc2)cs1 [Compound 86, N-(6-(1-(3-chloropropylsulfonyl)piperidin-4-yl)-2-ethylimidazo[1,2-a]pyridin-3-yl)-4-(4-fluorophenyl)-N-methylthiazol-2-amine] | < 6.00 | 7.00 to 11.00 | – |
| CCc1nc2ccc(N3CCN(C(=O)C4CCNC4)CC3)cn2c1N(C)c1nc(-c2ccc(F)cc2)cs1 (stereo not drawn) [Compound 47, (4-(2-ethyl-3-((4-(4-fluorophenyl)thiazol-2-yl)(methyl)amino)imidazo[1,2-a]pyridin-6-yl)piperazin-1-yl)(pyrrolidin-3-yl)methanone] | < 6.00 | 7.00 to 11.00 | – |
| CCc1nc2ccc(N3CCN(S(=O)(=O)CC(=O)O)CC3)cn2c1N(C)c1nc(-c2ccc(F)cc2)cs1 [Compound 60, 2-(4-(2-ethyl-3-((4-(4-fluorophenyl)thiazol-2-yl)(methyl)amino)imidazo[1,2-a]pyridin-6-yl)piperazin-1-ylsulfonyl)acetic acid] | < 6.00 | 7.00 to 11.00 | – |
| CCc1nc2ccc(C3CCN(S(C)(=O)=O)CC3O)cn2c1N(C)c1nc(-c2ccc(F)cc2)cs1 (stereo not drawn) [Compound 79, 4-(2-ethyl-3-((4-(4-fluorophenyl)thiazol-2-yl)(methyl)amino)imidazo[1,2-a]pyridin-6-yl)-1-(methylsulfonyl) piperidin-3-ol] | < 6.00 | 7.00 to 11.00 | – |
| CCc1nc2ccc(C3=CCS(=O)(=O)CC3)cn2c1N(C)c1nc(-c2ccc(Cl)cc2)cs1 [Compound 76, 4-(2-ethyl-3-((4-(4-chlorophenyl)thiazol-2-yl)(methyl)amino)imidazo[1,2-a]pyridin-6-yl)-3,6-dihydro-2H-thiopyran 1,1-dioxide] | < 6.00 | 7.00 to 11.00 | – |
| CCc1nc2ccc(C3=CCN(S(C)(=O)=O)C3)cn2c1N(C)c1nc(-c2ccc(Cl)cc2)cs1 [Compound 68, 4-(4-chlorophenyl)-N-(2-ethyl-6-(1-(methylsulfonyl)-2,5-dihydro-1H-pyrrol-3-yl)imidazo[1,2-a]pyridin-3-yl)-N-methylthiazol-2-amine] | < 6.00 | 7.00 to 11.00 | – |
| [2H]c1sc(N(c2c(CC)nc3ccc(C4CCN(S(C)(=O)=O)CC4)cn23)C([2H])([2H])[2H])nc1-c1ccc(F)cc1 [Compound 103, 4-(4-fluorophenyl)-N-(2-ethyl-6-(1-(methylsulfonyl)piperidin-4-yl)imidazo [1,2-a]pyridin-3-yl)-N-(d3-methyl)-(d-thiazol-2)-amine] | 6.30 to 7.00 | 7.00 to 11.00 | – |
| CCC(=O)N1CCN(c2ccc3nc(CC)c(N(C)c4nc(-c5ccc(F)cc5)cs4)n3c2)CC1 [Compound 51, 1-(4-(2-ethyl-3-((4-(4-fluorophenyl)thiazol-2-yl)(methyl)amino)imidazo[1,2-a]pyridin-6-yl)piperazin-1-yl)propan-1-one] | < 6.00 | 7.00 to 11.00 | – |
